Calls of active or inactive are those of the source. Rule as the data show it, for most assays here: actives have a measured EC50 and inactives only a lower limit.
Assays:
[1] = Luminescence Cell-Based Dose Response HTS to Identify Activators of Luciferase Translation or Activity in H4-C Neuroglioblastoma Cells. [Related pubchem assays: 1829 (Project Summary), 1814 (Primary HTS)]; format: functional
[2] = Luminescence Cell-Based Dose Retest to Confirm Activators of 5'UTR Stem-Loop Driven Alpha-Synuclein mRNA Translation in H4 Neuroglioblastoma Cells. [Related pubchem assays (depositor defined):AID1813, AID1829]; format: functional
[3] = Luminescence Cell-Based Dose Response HTS to Identify Activators of 5'UTR Stem-Loop Driven Prion Protein mRNA Translation in H4-C Neuroglioblastoma Cells. [Related pubchem assays: 1829 (Project Summary), 1814 (Primary HTS)]; format: functional
[4] = Luminescence Cell-Based Dose Confirmation HTS to Identify Activators of 5'UTR Stem-Loop Driven Alpha-Synuclein mRNA Translation in H4 Neuroglioblastoma Cells. [Related pubchem assays: 1829 (Project Summary), 1814 (Primary HTS)]; format: functional
[5] = Luminescence Cell-Based Dose Response HTS to Identify Activators of Luciferase Translation or Activity in H4 […] Cells. [Related pubchem assays: 1829 (Project Summary), 1814 (Primary HTS)]; format: functional
H4 = test: Luminescence Cell-Based Dose Response HTS to Identify Activators of 5'UTR Stem-Loop Driven Prion Protein mRNA Translation in H4 Neuroglioblastoma Cells. [Related pubchem assays: 1829 (Project Summary), 1814 (Primary HTS)]; format: functional; details: Homo sapiens
[6] = target: T1, Heat shock factor protein 1 (Mus musculus, UniProt P38532); test: HSF1 potentiators in luciferase reporter cells, confirmation, cell-based, NIH3T3, luminescence, dose retest (AID 435004); format: functional;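 also: stress induced by proteasome inhibitor MG132 added 30 min after compound; luciferase reporter driven by HSF1 response element in NIH3T3 cells; actives raise luminescence as potentiators of the MG132 stress response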
T1 sequence (P38532 whole entry): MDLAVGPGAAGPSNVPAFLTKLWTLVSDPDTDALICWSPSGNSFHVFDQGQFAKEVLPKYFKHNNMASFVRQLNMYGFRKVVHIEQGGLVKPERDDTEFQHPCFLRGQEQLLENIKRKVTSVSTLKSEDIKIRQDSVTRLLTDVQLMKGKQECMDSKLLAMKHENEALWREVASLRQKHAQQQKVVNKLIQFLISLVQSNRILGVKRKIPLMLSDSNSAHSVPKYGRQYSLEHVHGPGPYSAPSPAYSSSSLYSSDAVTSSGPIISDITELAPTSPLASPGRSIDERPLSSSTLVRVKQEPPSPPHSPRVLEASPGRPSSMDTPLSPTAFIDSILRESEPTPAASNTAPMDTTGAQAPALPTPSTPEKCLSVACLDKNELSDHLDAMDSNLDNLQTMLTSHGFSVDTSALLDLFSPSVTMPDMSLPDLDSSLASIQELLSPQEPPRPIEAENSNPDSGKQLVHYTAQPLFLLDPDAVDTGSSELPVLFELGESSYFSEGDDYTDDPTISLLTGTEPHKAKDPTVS

[7] = target: Scavenger receptor class B member 1 (Mus musculus, UniProt Q61009); test: inhibitors of SR-BI mediated HDL lipid uptake, dose response, ldlA[mSR-BI] cells, fluorescence, cherry pick (AID 493194); format: functional, cell-based;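 also: cellular uptake of fluorescent DiI-labeled HDL measured as cell fluorescence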
Chain of Scavenger receptor class B member 1 (Q61009 whole entry): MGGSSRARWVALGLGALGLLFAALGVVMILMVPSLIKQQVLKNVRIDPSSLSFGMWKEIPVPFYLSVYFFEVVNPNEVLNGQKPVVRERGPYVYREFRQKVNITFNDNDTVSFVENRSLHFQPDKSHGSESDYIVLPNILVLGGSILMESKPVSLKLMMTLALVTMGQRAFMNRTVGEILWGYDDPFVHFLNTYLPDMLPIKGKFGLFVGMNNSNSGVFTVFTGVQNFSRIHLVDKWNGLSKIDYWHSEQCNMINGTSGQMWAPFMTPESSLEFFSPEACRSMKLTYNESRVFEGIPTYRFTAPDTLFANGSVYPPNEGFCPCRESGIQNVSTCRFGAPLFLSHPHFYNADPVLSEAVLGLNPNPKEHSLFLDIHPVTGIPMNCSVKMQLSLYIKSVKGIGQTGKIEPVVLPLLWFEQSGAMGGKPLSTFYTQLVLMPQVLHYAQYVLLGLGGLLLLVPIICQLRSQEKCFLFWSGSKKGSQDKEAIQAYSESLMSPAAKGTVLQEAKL

[8] = target: Metabotropic glutamate receptor 4 (Homo sapiens, UniProt Q14833); test: Modulation of the Metabotropic Glutamate Receptor mGluR4: Potency at human mGluR4. Modulation of intracellular Ca2+ using Fluo-4, AM, in CHO expressing recombinant receptor [Related pubchem assays (depositor defined):AID2437, AID2807]; format: functional, cell-based
Chain of Metabotropic glutamate receptor 4 (Homo sapiens, UniProt Q14833) (Q14833 whole entry): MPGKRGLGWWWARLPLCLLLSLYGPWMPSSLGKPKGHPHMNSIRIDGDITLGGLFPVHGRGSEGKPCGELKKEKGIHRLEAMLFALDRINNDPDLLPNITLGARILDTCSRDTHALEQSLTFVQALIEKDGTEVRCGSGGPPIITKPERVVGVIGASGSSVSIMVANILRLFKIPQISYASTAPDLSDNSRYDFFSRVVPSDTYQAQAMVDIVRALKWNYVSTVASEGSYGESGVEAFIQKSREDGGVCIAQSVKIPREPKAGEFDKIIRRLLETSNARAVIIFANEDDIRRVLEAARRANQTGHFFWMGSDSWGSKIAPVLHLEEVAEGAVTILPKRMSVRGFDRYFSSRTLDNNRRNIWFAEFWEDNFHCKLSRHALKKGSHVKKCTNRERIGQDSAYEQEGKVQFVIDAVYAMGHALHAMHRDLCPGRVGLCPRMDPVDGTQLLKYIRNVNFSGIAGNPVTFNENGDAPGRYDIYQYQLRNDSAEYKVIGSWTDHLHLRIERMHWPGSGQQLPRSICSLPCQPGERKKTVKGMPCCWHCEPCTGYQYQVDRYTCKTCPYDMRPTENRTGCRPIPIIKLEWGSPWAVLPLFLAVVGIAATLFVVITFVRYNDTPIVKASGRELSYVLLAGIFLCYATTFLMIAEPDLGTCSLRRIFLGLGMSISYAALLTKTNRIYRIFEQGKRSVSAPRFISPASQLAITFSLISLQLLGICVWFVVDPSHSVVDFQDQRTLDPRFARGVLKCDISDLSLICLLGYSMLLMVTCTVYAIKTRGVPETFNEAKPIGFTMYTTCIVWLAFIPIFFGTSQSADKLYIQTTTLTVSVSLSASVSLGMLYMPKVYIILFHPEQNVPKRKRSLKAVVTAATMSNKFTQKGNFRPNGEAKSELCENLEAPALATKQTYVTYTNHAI

[9] = target: Metabotropic glutamate receptor 4 (Rattus norvegicus, UniProt P31423); test: Modulation of the Metabotropic Glutamate Receptor mGluR4: Rat PAM Potency. [Related pubchem assays (depositor defined):AID2437, AID2807]; format: functional
Chain of Metabotropic glutamate receptor 4 (Rattus norvegicus, UniProt P31423) (P31423 whole entry): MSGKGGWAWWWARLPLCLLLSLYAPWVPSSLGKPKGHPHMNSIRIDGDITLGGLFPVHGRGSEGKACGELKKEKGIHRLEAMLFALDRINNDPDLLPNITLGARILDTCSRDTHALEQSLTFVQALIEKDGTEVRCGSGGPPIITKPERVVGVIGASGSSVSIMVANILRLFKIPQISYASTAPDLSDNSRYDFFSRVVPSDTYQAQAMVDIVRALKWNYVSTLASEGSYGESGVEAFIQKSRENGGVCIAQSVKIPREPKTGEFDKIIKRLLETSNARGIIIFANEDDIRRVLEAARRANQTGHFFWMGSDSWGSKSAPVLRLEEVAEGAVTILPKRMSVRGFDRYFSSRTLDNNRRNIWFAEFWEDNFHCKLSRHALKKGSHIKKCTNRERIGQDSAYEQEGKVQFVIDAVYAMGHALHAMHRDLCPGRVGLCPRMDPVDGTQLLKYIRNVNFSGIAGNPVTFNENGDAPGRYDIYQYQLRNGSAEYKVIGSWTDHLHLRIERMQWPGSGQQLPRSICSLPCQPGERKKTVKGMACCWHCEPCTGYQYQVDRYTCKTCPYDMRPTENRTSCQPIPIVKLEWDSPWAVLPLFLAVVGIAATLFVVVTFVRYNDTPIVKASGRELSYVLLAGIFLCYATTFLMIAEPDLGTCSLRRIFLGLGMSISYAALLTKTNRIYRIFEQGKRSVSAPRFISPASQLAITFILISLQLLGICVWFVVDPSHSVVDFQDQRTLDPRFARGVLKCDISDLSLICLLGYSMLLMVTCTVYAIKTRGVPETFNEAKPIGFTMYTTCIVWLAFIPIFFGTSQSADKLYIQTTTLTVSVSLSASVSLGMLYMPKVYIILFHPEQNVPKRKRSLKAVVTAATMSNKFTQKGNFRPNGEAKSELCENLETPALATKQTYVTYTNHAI

[10] = inhibition of K1F phage lysis, E. coli UTI89, bacterial capsule biogenesis inhibitors, alamar blue (AID 488966); format: functional
[11] = target: T2, RNA-binding protein pos-1 (Caenorhabditis elegans, UniProt G5EF15); test: inhibitors of POS-1/mex-3 RNA binding, dose response, biochemical, fluorescence polarization (AID 1964);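 also: purified POS-1 fused to maltose binding protein made in E. coli; potency of compounds blocking POS-1 binding to fluorescent RNA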
T2 sequence (G5EF15 whole entry): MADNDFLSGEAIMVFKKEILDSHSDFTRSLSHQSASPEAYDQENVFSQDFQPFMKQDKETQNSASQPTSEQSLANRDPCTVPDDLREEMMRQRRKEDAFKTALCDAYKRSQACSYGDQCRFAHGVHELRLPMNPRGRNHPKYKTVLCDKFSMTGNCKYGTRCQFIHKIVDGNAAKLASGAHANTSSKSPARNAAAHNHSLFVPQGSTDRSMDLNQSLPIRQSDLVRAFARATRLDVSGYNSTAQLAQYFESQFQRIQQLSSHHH

[12] = target: T3, Zinc finger protein mex-5 (Caenorhabditis elegans, UniProt Q9XUB2); test: MEX-5/TCR-2 RNA interaction inhibitors, dose response, biochemical, C. elegans, fluorescence polarization (AID 1960)
T3 sequence (Q9XUB2 whole entry): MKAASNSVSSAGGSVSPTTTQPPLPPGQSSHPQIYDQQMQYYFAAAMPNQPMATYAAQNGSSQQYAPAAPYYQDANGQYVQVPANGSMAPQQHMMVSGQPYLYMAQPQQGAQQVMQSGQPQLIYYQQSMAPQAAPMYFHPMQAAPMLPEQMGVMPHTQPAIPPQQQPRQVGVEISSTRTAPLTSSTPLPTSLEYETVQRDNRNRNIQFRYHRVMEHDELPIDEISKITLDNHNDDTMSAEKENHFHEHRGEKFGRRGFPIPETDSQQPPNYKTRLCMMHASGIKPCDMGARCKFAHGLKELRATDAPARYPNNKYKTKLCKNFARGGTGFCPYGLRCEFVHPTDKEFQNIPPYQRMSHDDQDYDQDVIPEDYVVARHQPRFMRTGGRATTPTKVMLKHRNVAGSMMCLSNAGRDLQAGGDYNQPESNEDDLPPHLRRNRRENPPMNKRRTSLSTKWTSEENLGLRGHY

[13] = target: Neurotensin receptor type 1 (Homo sapiens, UniProt P30989); format: functional;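 also: Image-based confirmatory dose-response assay measuring agonist activity at NTR1; NTR1-expressing U2OS osteosarcoma cells imaged for beta-arrestin GFP spot formation; agonist potency where compounds increase beta-arrestin recruitment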
Chain of Neurotensin receptor type 1 (P30989 whole entry): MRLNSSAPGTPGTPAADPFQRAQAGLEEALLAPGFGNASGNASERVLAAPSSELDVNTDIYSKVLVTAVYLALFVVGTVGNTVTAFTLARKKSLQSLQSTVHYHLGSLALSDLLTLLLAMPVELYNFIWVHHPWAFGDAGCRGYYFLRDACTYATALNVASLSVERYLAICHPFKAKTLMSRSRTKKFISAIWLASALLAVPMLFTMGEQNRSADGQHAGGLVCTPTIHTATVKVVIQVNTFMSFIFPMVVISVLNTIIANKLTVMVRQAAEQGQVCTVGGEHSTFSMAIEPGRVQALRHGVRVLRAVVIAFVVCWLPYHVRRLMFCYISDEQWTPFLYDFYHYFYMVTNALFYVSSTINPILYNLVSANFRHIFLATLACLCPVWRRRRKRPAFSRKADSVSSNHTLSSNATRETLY

[14] = inhibitors of firefly luciferase expression or activity, dose response, H4 neuroglioma cells, luminescence (AID 1990); format: functional, cell-based
BJ [15] = test: cytotoxicity toward BJ-TERT fibroblasts, dose response, cell-based, RAS-independent, luminescence (AID 1933); format: functional; details: Homo sapiens
[16] = Luminescence Cell-Based Dose Response HTS to Identify Inhibitors of 5'UTR Stem-Loop Driven Prion Protein mRNA Translation in H4 Neuroglioblastoma Cells. [Related pubchem assays: 1827 (Project Summary), 1813 (Primary HTS)]; format: functional
[17] = inhibitors of SNCA 5'UTR-driven reporter translation, confirmation, H4 neuroglioma cells, luminescence (AID 1988); format: functional, cell-based
BJ [18] = test: cells; format: functional, cell-based; details: Homo sapiens
[19] = target: Luciferin 4-monooxygenase (Photinus pyralis, UniProt P08659); test: firefly luciferase enzyme inhibitors, dose response, biochemical, luminescence (AID 1891)
Chain of Luciferin 4-monooxygenase (P08659 whole entry): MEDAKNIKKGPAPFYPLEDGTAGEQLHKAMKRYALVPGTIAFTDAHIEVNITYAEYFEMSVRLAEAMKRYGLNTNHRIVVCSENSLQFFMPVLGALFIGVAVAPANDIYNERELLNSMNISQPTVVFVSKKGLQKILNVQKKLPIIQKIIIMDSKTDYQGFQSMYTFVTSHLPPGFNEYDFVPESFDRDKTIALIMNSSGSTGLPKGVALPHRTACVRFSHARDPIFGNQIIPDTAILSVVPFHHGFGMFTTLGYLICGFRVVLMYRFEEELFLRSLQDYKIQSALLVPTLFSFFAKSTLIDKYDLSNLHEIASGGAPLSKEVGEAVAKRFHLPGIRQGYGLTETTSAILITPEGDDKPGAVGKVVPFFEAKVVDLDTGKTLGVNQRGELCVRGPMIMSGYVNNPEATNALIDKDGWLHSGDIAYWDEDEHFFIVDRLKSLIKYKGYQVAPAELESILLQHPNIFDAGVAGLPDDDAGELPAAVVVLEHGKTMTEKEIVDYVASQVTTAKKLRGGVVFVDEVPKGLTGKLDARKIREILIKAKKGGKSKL

[20] = Luminescence Cell-Based Dose Confirmation HTS to Identify Inhibitors of Platelet Dense Granule Release. [Related pubchem assays: 1663 (Primary HTS), 1678 (Summary of Project)]; format: functional
BJ [21] = test: cytotoxicity toward BJ-TERT-LT-ST fibroblasts, dose response, cell-based, RAS-independent, luminescence (AID 1935); format: functional; details: Homo sapiens;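 also: BJ fibroblasts immortalized with TERT plus LT and ST oncogenes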
[22] = cytotoxicity toward DRD oncogenic fibroblasts, dose response, cell-based, non-viral oncogenic, luminescence (AID 1934); format: functional; details: Homo sapiens
Trypsin = Trypsin (Sus scrofa, UniProt P00761); test: porcine trypsin inhibitors, dose response, selectivity assay for Rce1 protease inhibitor project, biochemical, quenched peptide fluorescence, cherry-pick (AID 488789)
Chain of Trypsin (P00761 whole entry): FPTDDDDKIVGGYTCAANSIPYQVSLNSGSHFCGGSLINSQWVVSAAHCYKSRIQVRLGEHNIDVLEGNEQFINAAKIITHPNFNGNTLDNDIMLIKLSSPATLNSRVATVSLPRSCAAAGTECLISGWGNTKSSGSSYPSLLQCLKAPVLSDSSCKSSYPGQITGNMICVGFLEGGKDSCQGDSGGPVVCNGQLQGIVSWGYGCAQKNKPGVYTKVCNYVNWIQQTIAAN

[23] = inhibition of ADP-Glo detection reagents, dose response, artefact control for CDK5 inhibitor project, biochemical, luminescence, cherry-picked samples, set 2 (AID 504546); format: functional
[24] = target: Cyclin-dependent kinase 5/CDK5 activator 1 (Homo sapiens, UniProt Q00535); test: CDK5/p35 kinase inhibitors, dose response, biochemical, cherry-picked samples, set 2 (AID 504545)
Chain of Cyclin-dependent kinase 5/CDK5 activator 1 (Q00535 whole entry): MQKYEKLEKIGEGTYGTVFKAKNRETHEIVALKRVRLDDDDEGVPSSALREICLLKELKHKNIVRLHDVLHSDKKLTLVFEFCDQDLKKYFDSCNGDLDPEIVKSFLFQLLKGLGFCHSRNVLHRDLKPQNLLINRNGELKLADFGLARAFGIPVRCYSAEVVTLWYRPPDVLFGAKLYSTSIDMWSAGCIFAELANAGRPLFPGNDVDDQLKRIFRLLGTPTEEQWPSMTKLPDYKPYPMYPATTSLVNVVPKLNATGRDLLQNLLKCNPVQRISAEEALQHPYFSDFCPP
Chain of Cyclin-dependent kinase 5/CDK5 activator 1 (Q15078 whole entry, further chain): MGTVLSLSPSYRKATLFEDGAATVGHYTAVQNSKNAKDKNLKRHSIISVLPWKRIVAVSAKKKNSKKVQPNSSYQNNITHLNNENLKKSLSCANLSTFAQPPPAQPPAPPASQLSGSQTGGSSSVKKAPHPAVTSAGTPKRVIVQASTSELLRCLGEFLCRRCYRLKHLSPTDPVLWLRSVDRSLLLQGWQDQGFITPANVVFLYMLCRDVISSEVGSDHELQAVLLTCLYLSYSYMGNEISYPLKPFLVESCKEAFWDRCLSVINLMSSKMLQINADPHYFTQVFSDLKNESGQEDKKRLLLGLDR

CAAX prenyl protease 2 [25] = target: T4, CAAX prenyl protease 2 (Saccharomyces cerevisiae S288c, UniProt Q03530); format: biochemical
T4 sequence (Q03530 whole entry): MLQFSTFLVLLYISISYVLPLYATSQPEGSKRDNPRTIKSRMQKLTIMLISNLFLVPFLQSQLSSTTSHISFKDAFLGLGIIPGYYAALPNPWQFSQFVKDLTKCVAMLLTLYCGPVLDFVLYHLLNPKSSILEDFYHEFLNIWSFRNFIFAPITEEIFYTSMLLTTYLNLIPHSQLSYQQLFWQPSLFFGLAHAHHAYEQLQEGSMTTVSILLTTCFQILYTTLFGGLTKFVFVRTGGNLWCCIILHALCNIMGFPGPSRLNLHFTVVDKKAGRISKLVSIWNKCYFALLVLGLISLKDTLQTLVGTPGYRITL

CAAX prenyl protease 1 = CAAX prenyl protease 1 (Saccharomyces cerevisiae S288c, UniProt P47154); test: Ste24 protease inhibitors, dose response, biochemical, S. cerevisiae, plate reader, cherry-pick (AID 488815)
Chain of CAAX prenyl protease 1 (P47154 whole entry): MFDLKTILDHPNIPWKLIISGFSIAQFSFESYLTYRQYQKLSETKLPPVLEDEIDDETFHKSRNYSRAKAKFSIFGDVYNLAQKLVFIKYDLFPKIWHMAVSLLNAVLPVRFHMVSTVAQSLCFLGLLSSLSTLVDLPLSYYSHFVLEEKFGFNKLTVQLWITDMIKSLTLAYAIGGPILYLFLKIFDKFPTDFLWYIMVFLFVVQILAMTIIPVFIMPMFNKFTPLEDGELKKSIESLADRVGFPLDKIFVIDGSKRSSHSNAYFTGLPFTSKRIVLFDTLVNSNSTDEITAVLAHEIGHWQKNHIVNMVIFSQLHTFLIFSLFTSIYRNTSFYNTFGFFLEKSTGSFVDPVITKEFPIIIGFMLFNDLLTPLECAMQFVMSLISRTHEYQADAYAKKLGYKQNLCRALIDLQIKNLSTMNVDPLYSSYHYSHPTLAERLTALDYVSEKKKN

CAAX prenyl protease 2 [26] = target: CAAX prenyl protease 2 (Homo sapiens, UniProt Q9Y256); test: human Rce1 protease inhibitors, dose response, biochemical, yeast membranes, quenched-peptide fluorescence, cherry-pick (AID 588849)
Chain of CAAX prenyl protease 2 (Homo sapiens, UniProt Q9Y256) (Q9Y256 whole entry): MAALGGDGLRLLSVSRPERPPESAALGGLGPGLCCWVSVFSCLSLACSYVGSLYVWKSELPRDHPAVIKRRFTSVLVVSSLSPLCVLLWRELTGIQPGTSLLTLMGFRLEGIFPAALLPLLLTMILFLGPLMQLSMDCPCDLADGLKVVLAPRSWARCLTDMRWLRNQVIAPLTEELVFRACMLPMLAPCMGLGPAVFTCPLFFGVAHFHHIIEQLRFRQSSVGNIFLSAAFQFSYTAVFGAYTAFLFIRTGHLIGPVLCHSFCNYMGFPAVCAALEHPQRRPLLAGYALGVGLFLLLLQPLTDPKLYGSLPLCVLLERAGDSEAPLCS

Cc1cccc(NCc2nc3ccccc3n2C)c1
> 120 µM (not active): EC50 [5]
active: EC50 [1] 1.63 µM | EC50 [2] 0.752 µM | EC50 [3] 3.39 µM | EC50 [4] 0.296 µM | EC50 (H4) 8.1 µM | EC50 [6] 201 µM

CCc1sc(N2C(=O)C3C4CCC(C4=C(C)C)C3C2=O)nc1-c1ccccc1 (centres undefined)
active: AC50 [7] 0.635 µM

O=C(Nc1ccc(N2C(=O)[C@@H]3[C@H](C2=O)[C@@H]2CC[C@H]3O2)c(Cl)c1)c1ccccn1
active: EC50 [8] 1.44 µM | EC50 [9] 2.29 µM

O=C(Nc1nnc(/C=C/c2ccccc2)s1)c1ccco1
active: IC50 [10] > 75 µM

O=C1NC(=O)C(=Cc2cn(CCOc3ccc4c(c3)OCO4)c3ccccc23)C(=O)N1
active: EC50 [11] 16.7 µM | EC50 [12] 11.9 µM | EC50 [13] 4.12 µM

Cc1ccc2nc(-c3ccccc3)cn2c1
inconclusive: EC50 (BJ [21]) > 150 µM
inactive: AC50 (CAAX prenyl protease 2 [25]) > 100 µM | AC50 (CAAX prenyl protease 2 [26]) > 100 µM
active: EC50 [14] 1.32 µM | EC50 (BJ [15]) 9.54 µM | EC50 [16] 8.72 µM | EC50 [17] 0.717 µM | EC50 (BJ [18]) 9.05 µM | EC50 [19] 1.58 µM | EC50 [20] 2.18 µM | EC50 [22] 7.45 µM | AC50 (Trypsin) 59.9 µM | AC50 [23] 59.3 µM | AC50 [24] 18.6 µM | AC50 (CAAX prenyl protease 1) 7.44 µM

Reference: ChEMBL document CHEMBL1201862, “PubChem BioAssay data set” (2004)
